Results as given in patent US8580579B2, “Hydrophilic and lipophilic rhodamines for labelling and imaging” (Max-Planck-Gesellschaft zur Foerderung der Wissenschaften …, priority 2009, dated 2013).
“Also recorded” adds a separate entry of the source. Where two headings read alike, the source gives them in different places.

Tests used:
[1] = Spectral properties of commercially available dyes (Table 1); type: physicochemical; conditions: commercial dyes
[2] = Photostability order of commercial dyes; type: physicochemical; conditions: derived from the references to Table 1
Excerpt: Cytochem. 2003, 51, 1699-1712], and only in 2007 its structure has been reported [B. Agnew, K. R. Gee, T. G. Nyberg (Invitrogen), US Pat. 2007/0249014]. Along with rhodamines, the following substance classes were considered as leads for developing of the new fluorescent dyes: BODIPY® derivatives (represented by BODYPY® 630/650 in FIG. 4), carbopyronines (Atto 635 and 647), cyanine dyes (Cy® 5 and Alexa 647), structurally related hybrids of cyanine dyes and benzopyranes (DY-630/635/650) and oxazines (Evoblue 30). BODIPY® derivatives have a substantial drawback: sometimes, fluorescence intensity of their bioconjugates is not directly proportional to a number of labelled sites [R. P. Haugland, A Guide to Fluorescent Probes and Labelling Technologies, Invitrogen Corp., Carlsbad, 2005, p. 53]. Moreover, it is difficult to chemically modify a BODIPY residue in such a way that it becomes water-soluble and more photostable. Carbopyronines have been extensively studied by Drexhage et al. [e.g. A. Zilles, J. Arden-Jacob, K.-H. Drexhage, N. U. Kemnitzer, M. Hammers-Schneider (Atto-tec GmbH), WO 2005/003086 (13 Jan. 2005)]. The carbopyronine dye Atto 647N has been widely used for labelling in many “nanoscopic” studies. Quite recently first STED images of the living cells were recorded at a rate of 28 frames per seconds using this dye [V. Westphal, S. O. Rizzoli, M. A. Lauterbach, D. Kamin, R. Jahn, S. W. Hell, Science 2008, 320, 246-249]. In the course of this study, the movements of synaptic vesicles inside the axons of cultured neurons were recorded with a resolution of ca. 60 nm. […] However, it is not easy to further improve the properties of the carbopyronine dye Atto 647N and make it more hydrophilic. […] Lower photostability and moderate Φfl-values of cyanine dyes make them inappropriate as lead structures. Short lifetimes of the excited states and presumably low Φfl-values of oxazines (e.g. Evoblue 30), as well as their moderate photostability, make the optimization of their properties not very promising.

[3] = cited from earlier work; for τfl: solvent not given
[4] = cited from earlier work
[5] = Chemical and storage stability of dyes and reactive derivatives; type: physicochemical
[6] = Ground state depletion studies (pump-probe mode); type: physicochemical
Excerpt: The compound 6 is excellent for super-resolution far-field microscopy based on ground-state depletion, such as GSDIM (ground-state depletion followed by individual molecule return; J. Fölling et. al, Nature Meth. 2008, 5, 943-945). Here, “off” and “on” switching of the fluorescence is achieved by transiently shelving the fluorophore into a metastable dark state. Upon the return of only a few isolated single molecules to the fluorescent singlet state, positions of these single light emitting spots can be imaged on a camera and localized with high precision. Upon repeating this procedure and acquiring many pictures, a super-resolution image can be reconstructed from the localized positions. A prerequisite of this method is that >90% of the ensemble of the applied fluorescent dye can be shelved into a dark state at a time (to ensure the detection of isolated fluorescent spots at a time in a densely labeled sample) and that the fluorophore is bright enough, i.e., that it emits enough photons while being in the singlet on-state (to ensure high precision of localization). […] Switching off of the laser leads to a recovery of the fluorescence ensemble within a characteristic recovery time of 50 ms (FIG. 7), indicating the shelving into a metastable dark state. The measurements of FIGS. 6 and 7 were performed in a pump-probe mode, i.e., the residual level of fluorescence was probed with I=100 W/cm^2 for 0.5 ms after strong irradiation for 10 ms with the given laser intensity. Further on, recovery of the fluorescence can be accelerated by addition of UV light, which leads to an optically-induced de-population of the dark states. Already 2 kW/cm^2 of 375 nm light recovers 60% of the fluorescence within an irradiation period of 1 ms (FIG. 8). This is important in cases of samples of low label density where the addition of UV light and thus acceleration of dark state return helps to accelerate image acquisition.

[7] = Bleaching measurements by pump-probe cycles; type: physicochemical; conditions: 50 pump-probe cycles, pump intensity 18 kW/cm^2, 633 nm CW, 10 ms pulses, air-oxygen
Method: The degree of photodecomposition was evaluated by measuring the decrease in the fluorescence intensity of compound 6 (FIG. 5). […] The pulse duration was 10 ms, and the pulse power 18.3 kW/cm^2 (633 nm CW laser light). Photostability of compound 6 is strong: 50 pump-probe cycles with a pump intensity of 18 kW/cm^2 only bleach 25% of the ensemble allowing for a high number of single-molecule returns, i.e. a high number of single-molecule localizations and thus a final image with high contrast.

[8] = Solubility and polarity of the dyes
[9] = Conjugation with antibodies: labelling degree and quantum yield of conjugates; type: physicochemical
Excerpt: The degree of labelling achieved with antibodies may strongly vary; typically, compounds 6/6D (taken as their NHS esters 9/9D) attached to the anti-rabbit and anti-mouse antibodies produced a labelling degree from 2.5 up to 6. […] Decrease in fluorescence quantum yields after conjugation with antibodies is normal and well documented [cf.: V. P. Boyarskiy, V. N. Below, R. Medda, B. Hein, M. Bossi, S. W. Hell, Chem. Eur. J. 2008, 14, 1784-1792].

[10] = physchem; conditions: water
[11] = Excited state lifetime and FCS study under single molecule conditions; type: physicochemical
[12] = Fluorescence quantum yield, Atto 633 as reference; type: physicochemical; conditions: Atto 633 as reference (Φfl = 64% in aqueous buffer)
Excerpt: Moreover, intersystem crossing rates (kISC) and rates of the T1→S0 transitions were also found to be the same for both deuterated and undeuterated substances (see ref. to Table 2).

[13] = UV-visible absorption and fluorescence spectra of the dyes of the invention; type: physicochemical; conditions: for Stokes shift: dyes of the invention; for ε · 10^−5 / λmax (abs.) / λmax (fl.): solvent H2O
Method: UV-visible absorption spectra were recorded on a Varian Cary 4000 UV-Vis spectrophotometer, and fluorescence spectra on a Varian Cary Eclipse fluorescence spectrophotometer. Reactions were carried out upon magnetic stirring in Schlenk flasks equipped with septa or reflux condensers with bubble-counters under argon using a standard manifold with vacuum and argon lines. All NMR spectra are referenced to tetramethylsilane as an internal standard (δ=0 ppm) using the signals of the residual protons of CHCl3 (7.26 ppm) in CDCl3, CHD2OD (3.31 ppm) in CD3OD, HOD (4.75 ppm) in D2O, [D5]acetone (2.04 ppm) in [D6]acetone or [D5]DMSO (2.50 ppm) in [D6]DMSO. Multiplicities of signals are described as follows: s=singlet, br. s=broad singlet, d=doublet, t=triplet, q=quartet, quint=quintet, m=multiplet, mc=centrosymmetrical multiplet. Coupling constants (J) are given in Hz. Multiplicities in the ^13C NMR spectra were determined by APT (Attached Proton Test) measurements. Low resolution mass spectra (electro spray ionization, ESI) were obtained with LCQ and ESI-TOF mass-spectrometers (MICROTOF (focus), Fa. Bruker). The MICROTOF spectrometer equipped with ESI ion source Apollo and direct injector with LC autosampler Agilent RR 1200 was used for obtaining high resolution mass spectra (ESI-HRMS). ESI-HRMS were obtained also on APEX IV spectrometer (Bruker). HPLC system (Knauer): Smartline pump 1000 (2×), UV detector 2500, column thermostat 4000 (25° C.), mixing chamber, injection valve with 20 and 100 μL loop for the analytical and preparative columns, respectively; 6-port-3-channel switching valve; analytical column: Eurospher-100 C18, 5 μm, 250×4 mm, 1.1 mL/min; preparative column: Eurospher-100-5 C18, 5 μm, 250×8 mm, 3.7 mL/min; solvent A: water+0.1% v/v trifluoroacetic acid (TFA); solvent B: MeCN+0.1% v/v TFA; detection at 636 nm (if not stated otherwise). Normal phase analytical TLC was performed on MERCK ready-to-use plates with silica gel 60 (F254) and reversed phase TLC—on RP-18W/UV254 precoated TLC plates (Macherey-Nagel). Preparative TLC was performed on MERCK HPTLC silica gel 60 plates (10×10 cm, layer thickness 0.2 mm). Column chromatography: MERCK silica gel, grade 60, 0.04-0.063 mm or Polygoprep 60-50 C18 (Macherey-Nagel).

Compound | Stokes shift [1] [nm] | order of the photoresistance [2] | τfl [3] [ns] | Solubility (solvents) [4] | stability in methanol or methanol-containing solutions [5] | polarity [8] | solubility in water or aqueous buffers [8] | solubility [10] [mM] | τfl (excited state lifetime) [11] | Φfl in water [12] [%] | Stokes shift [13] [nm] | ε · 10^−5 [13] [M^−1 cm^−1] | λmax (abs.) [13] [nm] | λmax (fl.) [13] [nm] | further results
CCN(CC)CC.CCN(CC)CC.CN1c2cc3c(cc2-c2sc(S(=O)(=O)O)cc2C1(C)C)C(c1c(F)c(SCC(=O)O)cc(F)c1S(=O)(=O)[O-])=c1cc2c(cc1O3)=[N+](C)C(C)(C)c1cc(S(=O)(=O)O)sc1-2 [Alexa ® 633] | 15 | Atto 633>Atto 647N>Alexa® 647>Alexa® 633>Cy® 5 | 3.2 | DMSO, H2O^3 | – | – | – | – | – | – | – | – | – | – | ε · 10^−5 ([3]; solvent MeOH): 1.0 M^−1 cm^−1; λmax (abs.) ([3]; solvent MeOH): 632 nm; λmax (fl.) ([3]; solvent MeOH): 647 nm
CN(CCC(=O)O)C(=O)c1c(F)c(F)c(F)c(F)c1C1=c2cc3c4c(c2Oc2c1cc1c5c2CCCN5C(C)(C)C=C1CS(=O)(=O)O)CCC[N+]=4C(C)(C)C=C3CS(=O)(=O)[O-] [Compound 6] | – | – | – | – | formed the corresponding methyl ester; also recorded: rapid esterification of the β-alanine fragment with methanol | polar; also recorded: hydrophilic | soluble in water; also recorded: soluble in water or aqueous buffers | > 100 | 3.57^20 ns | 80 | 23 | 0.94 | 637 | 660 | fluorescence recovered by UV light ([6]; 2 kW/cm^2 of 375 nm light, irradiation period 1 ms): 60%; extent of ground state depletion ([6]; 633 nm laser pulses, ca. 12 kW/cm^2): 97±3%; fluorophores switched off at a time ([6]; I>10 kW/cm^2 CW 633 nm, poly(vinyl alcohol) matrix): 97%; fraction of the ensemble bleached [7]: 25%; solubility in organic solvents [8]: insoluble in diethyl ether, aliphatic, chlorinated, and aromatic hydrocarbons; solubility in water ([8]; room temperature): 40-45 mg in 1 mL; fluorescence quantum yield of the conjugate ([9]; conjugate with goat anti-rabbit antibodies): 40%; fluorescence quantum yield of the conjugate ([9]; conjugate with sheep anti-mouse antibodies): 48%
[2H]C1=C(C([2H])([2H])S(=O)(=O)O)c2cc3c(c4c2N(CCC4)C1(C([2H])([2H])[2H])C([2H])([2H])[2H])Oc1c2c4c(cc1=C3c1c(F)c(F)c(F)c(F)c1C(=O)N(C)CCC(=O)O)C(C([2H])([2H])S(=O)(=O)[O-])=C([2H])C(C([2H])([2H])[2H])(C([2H])([2H])[2H])[N+]=4CCC2 [Compound 6D] | – | – | – | – | rapid esterification of the β-alanine fragment with methanol | polar; also recorded: hydrophilic | soluble in water or aqueous buffers | > 100 | 3.67^21 ns | 78 | 23 | 0.92 | 637 | 660 | –
CC[N+]1=c2cc3c(cc2C(C)CC1(C)C)=C(c1ccccc1C(=O)N(C)CCCC(=O)O)c1cc2c4c(c1C3(C)C)CCCN4CCC2.[O-][Cl+3]([O-])([O-])[O-] (mixture of isomers) [Atto 647N] | 25 | Atto 633>Atto 647N>Alexa® 647>Alexa® 633>Cy® 5 | 3.4 | DMF, DMSO | – | – | – | – | – | – | – | – | – | – | Φfl ([3]; no solvent given in the cell): 65%; ε · 10^−5 ([3]; solvent PBS): 1.5 M^−1 cm^−1; λmax (abs.) ([3]; solvent PBS): 644 nm; λmax (fl.) ([3]; solvent PBS): 669 nm
